{
  "source": "patent US20130156762A1",
  "about": "“Mechanically-Activated Cation Channels” (The Scripps Research Institute, priority 2010, published 2013)",
  "key": {"Piezo2": {"target": "T1, Piezo2 (Mus musculus, UniProt Q8CD54)", "T1 construct": "expressed in transfected cells; host or cells: N2A (with Piezo1 siRNA) or HEK293T; A13: N2A", "T1 sequence (Q8CD54 whole entry)": "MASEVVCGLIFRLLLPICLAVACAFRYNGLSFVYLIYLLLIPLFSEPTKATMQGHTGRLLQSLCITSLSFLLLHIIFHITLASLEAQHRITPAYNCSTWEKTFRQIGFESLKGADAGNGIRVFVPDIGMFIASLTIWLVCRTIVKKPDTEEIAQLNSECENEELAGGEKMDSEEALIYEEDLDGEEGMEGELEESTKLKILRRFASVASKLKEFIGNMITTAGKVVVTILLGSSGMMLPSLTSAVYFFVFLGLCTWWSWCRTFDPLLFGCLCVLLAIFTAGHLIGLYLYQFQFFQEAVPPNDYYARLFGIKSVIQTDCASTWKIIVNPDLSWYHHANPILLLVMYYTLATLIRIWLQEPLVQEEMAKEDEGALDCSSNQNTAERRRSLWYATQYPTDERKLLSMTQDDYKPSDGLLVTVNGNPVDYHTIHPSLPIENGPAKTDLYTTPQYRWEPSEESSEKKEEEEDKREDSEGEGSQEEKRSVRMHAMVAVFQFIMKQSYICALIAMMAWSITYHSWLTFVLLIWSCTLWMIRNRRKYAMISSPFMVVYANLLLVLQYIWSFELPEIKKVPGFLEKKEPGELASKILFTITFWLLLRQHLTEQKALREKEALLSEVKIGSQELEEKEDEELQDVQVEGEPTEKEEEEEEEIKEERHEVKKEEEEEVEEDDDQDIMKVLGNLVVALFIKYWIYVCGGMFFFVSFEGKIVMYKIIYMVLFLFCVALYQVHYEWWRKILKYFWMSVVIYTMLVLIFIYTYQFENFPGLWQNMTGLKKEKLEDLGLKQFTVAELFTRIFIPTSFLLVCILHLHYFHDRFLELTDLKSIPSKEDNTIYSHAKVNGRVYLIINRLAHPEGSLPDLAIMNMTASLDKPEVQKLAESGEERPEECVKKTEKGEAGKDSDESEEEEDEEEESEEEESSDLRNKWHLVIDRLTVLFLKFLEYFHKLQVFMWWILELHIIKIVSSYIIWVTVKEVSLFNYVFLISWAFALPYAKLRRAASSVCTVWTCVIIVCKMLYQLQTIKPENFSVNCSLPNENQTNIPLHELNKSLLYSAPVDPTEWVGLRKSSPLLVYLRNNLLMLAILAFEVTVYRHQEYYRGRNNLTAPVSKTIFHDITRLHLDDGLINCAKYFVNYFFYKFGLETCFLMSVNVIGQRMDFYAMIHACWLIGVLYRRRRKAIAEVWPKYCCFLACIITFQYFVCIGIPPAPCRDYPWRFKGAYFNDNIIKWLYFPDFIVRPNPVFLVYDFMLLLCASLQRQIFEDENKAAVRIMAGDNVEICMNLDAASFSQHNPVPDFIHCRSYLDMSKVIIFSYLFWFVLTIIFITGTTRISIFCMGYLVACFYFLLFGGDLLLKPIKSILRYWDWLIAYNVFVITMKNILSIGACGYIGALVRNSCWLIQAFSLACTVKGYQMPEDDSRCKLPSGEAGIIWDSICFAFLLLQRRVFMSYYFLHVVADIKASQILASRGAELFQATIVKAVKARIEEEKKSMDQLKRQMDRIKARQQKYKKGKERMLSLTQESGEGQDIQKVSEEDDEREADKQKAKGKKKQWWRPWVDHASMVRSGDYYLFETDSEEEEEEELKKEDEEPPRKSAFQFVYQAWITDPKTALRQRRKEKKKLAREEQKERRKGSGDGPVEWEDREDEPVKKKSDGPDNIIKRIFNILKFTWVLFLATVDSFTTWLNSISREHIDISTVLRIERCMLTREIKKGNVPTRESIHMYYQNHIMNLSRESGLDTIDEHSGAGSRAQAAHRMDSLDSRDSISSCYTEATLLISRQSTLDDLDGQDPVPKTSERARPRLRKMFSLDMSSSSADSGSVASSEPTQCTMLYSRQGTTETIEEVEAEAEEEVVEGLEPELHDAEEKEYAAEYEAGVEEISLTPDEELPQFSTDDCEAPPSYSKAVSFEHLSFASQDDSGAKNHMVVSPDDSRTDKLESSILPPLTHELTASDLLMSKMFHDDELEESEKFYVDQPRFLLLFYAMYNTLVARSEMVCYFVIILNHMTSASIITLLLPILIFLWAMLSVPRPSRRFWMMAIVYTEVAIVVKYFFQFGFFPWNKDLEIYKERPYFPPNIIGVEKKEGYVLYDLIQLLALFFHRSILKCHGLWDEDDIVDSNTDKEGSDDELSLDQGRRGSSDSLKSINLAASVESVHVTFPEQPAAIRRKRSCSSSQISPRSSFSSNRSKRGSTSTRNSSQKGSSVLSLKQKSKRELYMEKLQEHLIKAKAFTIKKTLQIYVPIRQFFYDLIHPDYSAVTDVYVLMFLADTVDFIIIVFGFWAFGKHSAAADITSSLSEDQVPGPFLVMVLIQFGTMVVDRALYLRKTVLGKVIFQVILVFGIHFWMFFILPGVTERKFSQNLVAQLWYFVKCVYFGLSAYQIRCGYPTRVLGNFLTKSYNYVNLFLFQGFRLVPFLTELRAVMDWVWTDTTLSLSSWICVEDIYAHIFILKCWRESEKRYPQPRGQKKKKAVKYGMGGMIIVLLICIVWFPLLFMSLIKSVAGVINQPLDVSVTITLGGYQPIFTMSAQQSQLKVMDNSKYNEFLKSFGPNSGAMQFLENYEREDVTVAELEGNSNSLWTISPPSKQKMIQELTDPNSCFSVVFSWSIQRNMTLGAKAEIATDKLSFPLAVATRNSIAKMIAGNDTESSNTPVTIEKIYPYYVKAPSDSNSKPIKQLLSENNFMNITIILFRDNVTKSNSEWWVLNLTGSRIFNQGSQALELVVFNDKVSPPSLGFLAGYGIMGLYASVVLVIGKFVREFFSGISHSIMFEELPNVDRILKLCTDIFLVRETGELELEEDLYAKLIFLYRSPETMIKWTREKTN", "assay": "Block of Piezo2-induced MA currents in Piezo2-expressing cells (whole-cell)", "format": "cell-based", "conditions": "for Percent block of Piezo2-induced MA currents: 30 μM", "protocol": "(§1) Patch-clamp experiments were performed in standard whole-cell or cell attached recordings using an Axopatch 200B amplifier (Axon Instruments). Patch pipettes had resistance of 2-3 MΩ when filled with an internal solution consisting of (in mM) 133 CsCl, 10 HEPES, 5 EGTA, 1 CaCl2, 1 MgCl2, 4 MgATP, and 0.4 Na2GTP (pH adjusted to 7.3 with CsOH). The extracellular solution consisted of (in mM) 127-130 NaCl, 3 KCl, 1 MgCl2, 10 HEPES, 2.5 CaCl2, 10 glucose (pH adjusted to 7.3 with NaOH). NMDG solution consisted of (in mM) 150 NMDG, 10 HEPES (pH 7.5). For ion selectivity experiments, internal solution consisted of (in mM) 150 CsCl, 10 Hepes (pH 7.3 with CsOH), monovalent external solutions consisted of (in mM) 150 NaCl or KCl, 10 HEPES (pH 7.3 with NaOH or KOH) and divalent external solutions consisted of (in mM) 100 CaCl2 or MgCl2, 10 HEPES (pH 7.3 with CsOH). For cell attached recordings, pipette were filled with a solution consisting of (in mM) 130 NaCl, 5 KCl, 10 HEPES, 1 CaCl2, 1 MgCl2, 10 TEA-C1 (pH 7.3 with NaOH) and external solution used to zero the membrane potential consisted of (in mM) 140 KCl, 10 HEPES, 1 MgCl2, 10 glucose (pH 7.3 with KOH). All experiments were done at room temperature. Currents were sampled at 20 kHz and filtered at 2 kHz. Voltages were not corrected for a liquid junction potential excepted for ion selectivity experiments were LJP were calculated using Clampex 10.1 software (Axon Instruments). Leak currents before mechanical stimulations were subtracted off-line from the current traces. 10 mM ruthenium red stock solution was prepared in DMSO; 100 mM gadolinium stock solution, in water.\n(§2) For whole-cell recordings mechanical stimulation was achieved using a fire-polished glass pipette (tip diameter 3-4 μm) positioned at an angle of 80° to the cell being recorded. Downward movement of the probe toward the cell was driven by a Clampex controlled piezo-electric crystal microstage (E625 LVPZT Controller/Amplifier; Physik Instrumente). […] Inward MA currents were recorded at a holding potential of −80 mV. […]"}, "N2A cells": {"system": "N2A cells", "assay": "Whole-cell mechanical stimulation (piezo-driven glass probe), MA currents in N2A cells", "format": "cell-based, mouse", "protocol": "Cell culture and transient transfection. Neuro2A cells were grown in Eagle's Minimum Essential Medium containing 4.5 mg.ml^−1 glucose, 10% fetal bovine serum, 50 units.ml^−1 penicillin and 50 μg.ml^−1 streptomycin. C2C12 or Human Embryonic Kidney 293T (HEK293T) cells were grown in Dulbecco's Modified Eagle Medium containing 4.5 mg.ml^−1 glucose, 10% fetal bovine serum, 50 units.ml^−1 penicillin and 50 μg.ml^−1 streptomycin. Cells were plated onto 35 mm dishes or 12-mm round glass coverslips placed in 24-well plates and transfected using lipofectamine 2000 (Invitrogen) according to the manufacturer's instructions. For Piezo1 overexpression experiment, 500 to 1000 ng.ml^−1 of Piezo1-IRES-GFP or vector only were transfected, and cells were recorded 12-48 hours later. For Piezo2 overexpression experiments, 600 to 1000 ng.ml^−1 of mPiezo2 or vector were co-transfected with 300 ng.ml^−1 GFP to identify transfected cells and cells were recorded 12-48 hours later. […]\n(§3) Patch-clamp experiments were performed in standard whole-cell or cell attached recordings using an Axopatch 200B amplifier (Axon Instruments). […] Voltages were not corrected for a liquid junction potential excepted for ion selectivity experiments were LJP were calculated using Clampex 10.1 software (Axon Instruments). […]"}, "Piezo1": {"target": "T2, Piezo1 (Mus musculus, UniProt E2JF22)", "T2 construct": "expressed in transfected cells; HEK293T for immunocytochemistry", "assay": "Block of Piezo1-induced MA currents in Piezo1-expressing cells (whole-cell)", "format": "cell-based", "conditions": "for Percent block of Piezo1-induced MA current: 30 μM", "protocol": "as §1, §2"}, "C2C12 cells": {"system": "C2C12 cells", "assay": "Whole-cell mechanical stimulation, MA currents in C2C12 cells", "format": "cell-based, mouse", "conditions": "NMDG-chloride external solution, data not shown", "protocol": "Cell culture and transient transfection. Neuro2A cells were grown in Eagle's Minimum Essential Medium containing 4.5 mg.ml^−1 glucose, 10% fetal bovine serum, 50 units.ml^−1 penicillin and 50 μg.ml^−1 streptomycin. C2C12 or Human Embryonic Kidney 293T (HEK293T) cells were grown in Dulbecco's Modified Eagle Medium containing 4.5 mg.ml^−1 glucose, 10% fetal bovine serum, 50 units.ml^−1 penicillin and 50 μg.ml^−1 streptomycin. Cells were plated onto 35 mm dishes or 12-mm round glass coverslips placed in 24-well plates and transfected using lipofectamine 2000 (Invitrogen) according to the manufacturer's instructions. For Piezo1 overexpression experiment, 500 to 1000 ng.ml^−1 of Piezo1-IRES-GFP or vector only were transfected, and cells were recorded 12-48 hours later. For Piezo2 overexpression experiments, 600 to 1000 ng.ml^−1 of mPiezo2 or vector were co-transfected with 300 ng.ml^−1 GFP to identify transfected cells and cells were recorded 12-48 hours later.\nas §3"}},
  "data": [
    {"smiles": "CNC[C@H](O)[C@@H](O)[C@H](O)[C@H](O)CO", "note": "[NMDG]", "values": [
      {"measurement": "Effect on Piezo2-induced currents", "setting": "Piezo2; perfusion with NMDG-Cl solution", "value": "suppressed"},
      {"measurement": "Effect on inward endogenous MA currents", "setting": "N2A cells; NMDG-chloride external solution, data not shown", "value": "suppressed"},
      {"measurement": "Effect on inward Piezo1-induced MA currents", "setting": "Piezo1; NMDG substituted in extracellular bathing solution (150 mM NMDG-Cl)", "value": "suppressed"},
      {"measurement": "Effect on inward endogenous MA currents", "setting": "C2C12 cells", "value": "suppressed"}
    ]},
    {"smiles": "N.N.N.N.N.N.N.N.N.N.N.N.N.N.[Cl-].[Cl-].[Cl-].[Cl-].[Cl-].[Cl-].[O-2].[O-2].[Ru+3].[Ru+3].[Ru+4]", "note": "[ruthenium red]", "values": [
      {"measurement": "Percent block of Piezo2-induced MA currents", "setting": "Piezo2", "value": "79.2±4.2", "unit": "%"},
      {"measurement": "Percent block of Piezo1-induced MA current", "setting": "Piezo1", "value": "74.6±2.5", "unit": "%"}
    ]},
    {"smiles": "O=C(O)CN(CCOCCOCCN(CC(=O)O)CC(=O)O)CC(=O)O", "note": "[EGTA]", "values": [
      {"measurement": "Effect on MA currents", "setting": "N2A cells; extracellular perfusion of divalent-free 5 mM EGTA solution for 30-60 min", "value": "did not suppress"}
    ]},
    {"smiles": "[Gd]", "note": "[gadolinium]", "values": [
      {"measurement": "Percent block of Piezo2-induced MA currents", "setting": "Piezo2", "value": "85.0±3.7", "unit": "%"},
      {"measurement": "Percent block of Piezo1-induced MA current", "setting": "Piezo1", "value": "84.3±3.8", "unit": "%"}
    ]}
  ]
}
